Source: patent publication US10675267B2, “Methods for detection and eradication of myeloid leukemia stem cells” (priority 2015, dated 2020)
“Also recorded” adds a separate entry of the source.

Tests used:
[1] = system: KG1a cells; test: In vitro splicing of endogenous transcripts (qRT-PCR) in KG1a; format: cell-based; conditions: KG1a AML cells, compared with MOLM-13
Experimental: For qRT-PCR analysis of relative total mRNA expression levels or splice isoform-specific expression analyses, cDNA was synthesized using 50 ng-1 […] reaction volumes using the First-Strand SUPERSCRIPT™ III Reverse Transcriptase Supermix (Life Technologies) followed by incubation with RNase H according to the manufacturer's protocol and as described previously (Abrahamsson et al., 2009; Crews et al., 2015). All cDNA products were stored at −20° C. Splice isoform-specific primers for PTK2B-202 were designed to bind to unique exon junctions for this transcript, which lacks exon 24. All primers (Supplemental Experimental Procedures Table) were diluted to 10 ∝M working dilutions in DNase/RNase-free water. qRT-PCR was performed in duplicate using cDNA (1 ∝Λ reverse transcription product per reaction) on an iCycler (Bio-Rad, Hercules, Calif.) using SYBR® GREENER™ Super Mix (Life Technologies) in 25-∝A volume reactions containing 0.2 ∝M of each forward and reverse primer. Cycling conditions were as follows: 50° C. for 2 minutes, then 95° C. for 8 minutes and 30 seconds, followed by 40 cycles of 95° C. for 15 seconds and 60° C. for 60 seconds. […] For standard qRT-PCR, human HPRT mRNA transcript levels were used to normalize Ct values obtained for each gene, and relative expression levels were calculated using the 2-ddCt method. […]

[2] = system: CD34+ cells from normal aged bone marrow; test: SL/M2 stromal co-culture with colony and replating assays, normal bone marrow; format: cell-based, human; conditions: normal aged bone marrow samples
Experimental: In hypothesis-driven experiments, the splicing modulatory compound 17S-FD-895 was tested to determine efficacy in altering splicing activity in cell lines, and to evaluate effects on AML LSC survival and self-renewal capacity in humanized bone marrow stromal co-cultures and in PRIMAGRAFT™ AML LSC models. Cell culture experiments were performed using 293T and sAML (MOLM-13) cell lines, and SL and M2 bone marrow stromal cell lines. Animal studies were performed using immunocompromised Rag2−/−γc−/−[20] or NOD/SCID-IL2RG mice (Jackson Laboratory, Bar Harbor, Me.). Primary AML and normal control samples were used in in vitro hematopoietic stem and progenitor assays after bone marrow stromal co-culture and treatment with splicing modulatory compounds (FD-895 or 17S-FD-895) or vehicle control (DMSO). Colony formation potential and self-renewal capacity were assessed by counting colony numbers (survival) after two weeks of growth in semi-solid (methylcellulose) media, and subsequent replating capacity (self-renewal) was assessed after transfer to fresh methylcellulose for an additional two weeks of culture. Three primary AML samples were utilized to establish PRIMAGRAFT™ models in immunocompromised mice, and mice engrafted with cells from two of these models (AML-37 and AML-08) were treated with 17S-FD-895 or vehicle (DMSO) to evaluate changes in AML LSC survival and self-renewal capacity in vivo. Data were collected by flow cytometry and qRT-PCR analysis of CD34-selected human LSC-enriched cells from engrafted mice.
Bone marrow SL/M2 monolayers were established from freshly inactivated (irradiated) cells and then human CD34^+ cells selected from AML primary samples (n=8) and normal controls (CD34^+ cells from cord blood, CB, n=6; or aged bone marrow, n=6) were added. Survival and self-renewal of the CD34+ cells were investigated by methylcellulose-based colony and replating assays. Two SF3B1-targeted splicing modulators, FD-895 or 17S-FD-895, were added at the initiation of co-culture at concentrations ranging from 0.1 to 10 μM.
As previously described (Goff et al., 2013), humanized bone marrow SL/M2 monolayers were inactivated (irradiated) and then human CD34^+ cells selected from AML primary samples and normal controls were added for two weeks of co-culture, followed by methylcellulose-based colony and replating assays. FD-895 or 17S-FD-895 were added at the initiation of co-culture, with DMSO as a vehicle control.

CC[C@H](OC)[C@@H](C)[C@H]1O[C@@H]1[C@@H](O)[C@H](C)/C=C/C=C(\C)[C@H]1OC(=O)C[C@H](O)CC[C@@](C)(O)[C@@H](OC(C)=O)/C=C/[C@@H]1C (stereo in doubt) [Formula 17S-FD-895, 17S-FD-895] was tested, and the “DNAJB1 intron 2 levels” value [1] was “to a lesser extent”, the “erythroid colony formation and self-renewal” value [2] was “not significantly changed; also recorded: no effect on erythroid colonies” and the “granulocyte-macrophage (myeloid) colony survival” value [2] was “slight decrease; also recorded: reduces myeloid colony formation”.
